{"source": "patent US6806267B1", "about": "“Apoptosis-inducing compounds” (priority 1998, dated 2004)", "key": {"JNK1 and JNK2": {"tested_on": "JNK1 and JNK2", "type": "cell-based, human", "details": "K562"}, "K562 cells": {"tested_on": "K562 cells", "experiment": "Apoptosis in K562 cells, cytospin and staining", "type": "cell-based, human", "details": "K562, 200 μM 1 hour, then PBOX-6 10 μM 16 hours"}, "Jurkat cells [1]": {"tested_on": "Jurkat cells", "type": "cell-based, human", "details": "200 μM"}, "Jurkat cells [2]": {"tested_on": "Jurkat cells", "type": "cell-based, human", "details": "200 μM", "procedure": "This assay was set up as described by Kohn et al., 1976 with the following modifications.\nCells were seeded at 0.4×10^6 cells/ml and were in the logarithmic phase of growth. […] Cells harvested for the experiments were at a density of 2×10^6 cells/ml.\nCells (1×10^6) were labelled with [^3H] thymidine (sp. act. 2 Ci/mmol) (0.2 μCi/ml) and 1 μM unlabelled thymidine, and incubated for 20 hr. Cells were harvested by centrifugation at 500×g for 5 mins following by two washes in PBS and the pellet was resuspended in 3 ml of PBS. Cells were aliquoted into 1 ml amounts in a 24 well plate and allowed to recover for 1 hr at 37° C. before treating with indicated compounds. Following treatment, cells were washed once in PBS and resuspended in 250 μl of PBS. An aliquot of cells (200 μl) was loaded directly onto a 25 mm diameter glass fiber filter, pore size of 0.2 μM. The cells were lysed on the filter by the addition of 5 ml lysis buffer (2% (w/v) SDS, 10 mM disodium EDTA (pH 10) supplemented with 0.5 mg/ml proteinase K. The lysis buffer was allowed to flow slowly through the filter without suction. Filters were washed using 3 ml wash solution (0.02M Na3EDTA pH 10) allowing it to flow without suction. Filters were eluted in the dark with an alkaline solution (0.04M EDTA plus tetrapropylammonium hydroxide (10% in H2O ) added in the amount required to give pH 12.1). The elution apparatus consisted of a filter funnel with output tubing passing through a peristaltic pump to a collector. Elution took place overnight at a flow rate of 0.05 ml/min. Following elution, filters were treated with 0.4 ml HCl (1N) for 1 hr at 70° C. followed by 2.5 ml NaOH (0.4N) for 30 min at room temp. Scintillation fluid (10 ml) was added and radioactivity remaining on the filters was determined by scintillation counting.", "remark": "listed apart in the source"}, "HL-60 cells": {"tested_on": "HL-60 cells", "experiment": "Apoptosis in HL-60 cells, cytospin and Rapi-Diff staining"}, "[3]": {"target": "T1, peripheral-type benzodiazepine receptor (PBR) (Homo sapiens, UniProt P30536)", "T1 construct": "Cell homogenates (50 μg protein) were incubated with 0.5-50 nM [^3H]; PK 11195; endogenous in cells; host or cells: HL-60 cell homogenate", "T1 sequence (P30536 whole entry)": "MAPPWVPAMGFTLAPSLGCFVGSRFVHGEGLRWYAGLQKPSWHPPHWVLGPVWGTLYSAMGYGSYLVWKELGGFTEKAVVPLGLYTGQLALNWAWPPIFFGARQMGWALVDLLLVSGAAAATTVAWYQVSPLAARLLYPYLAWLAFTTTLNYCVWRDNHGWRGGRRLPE", "experiment": "Radioligand binding assay, inhibition of [^3H]PK 11195 binding to HL-60 homogenates", "procedure": "HL-60 cells were harvested by centrifugation at 600 g for 5 min and washing in phosphate-buffered saline. The resulting cell pellet was homogenised in 50 mM Tris/HCl buffer, pH 7.4 (2 ml), using an Ultraturrax homogeniser (10 sec) and then passed 5 times through a 21 gauge needle. Cell homogenates (50 μg protein) were incubated with 0.5-50 nM [^3H] PK 11195 in 50 mM Tris/HCl buffer, pH 7.4 (incubation buffer), in a total volume of 0.5 ml on ice. Total and non-specific/non-saturable binding in each case was determined in the absence and presence of 10 μM unlabelled PK 11195 respectively. All samples were incubated in triplicate for 60 min. The incubation mixtures were then filtered and counted as previously described (O'Beirne, et al., 1988). When testing the potency of a compound to inhibit [^3H] PK 11195 binding, samples were incubated with 2 nM [3H] PK 11195 and various concentrations (0.1 nM to 1 μM) of compound and subsequently treated exactly as above. The resulting Ki values were then generated by the use of the computer programs EBDA and LIGAND.\nThe amount of radioactivity bound in the presence of the displacer was expressed as a percentage of control bonding and the values represent the mean±SEM of triplicate determinations from one representative experiment performed at least twice. The Ki values were obtained as described in Methods section."}, "[4]": {"tested_on": "PARP (poly ADP-ribose polymerase)", "experiment": "Western blot of PARP cleavage in Hela cells", "type": "cell-based, human", "procedure": "CML cells were seeded at 2×10^6 cells in 5 mls of growth medium, and treated with 10 μM PBOX-6 for 16 and 24 hr. Hela cells were seeded at 1×10^6 cells per 25 cm^2 flask. Following a 24 hour incubation, the cells were treated with PBOX-3 for a further 48 hours and the cells were scraped up. Cells were then centrifuged at 500 g for 5 min, the supernatant was removed and the pellet was resuspended in 200 μl of PARP sample buffer (62.5 mM Tris/HCl pH 6.8, 6 M urea, 10% (w/v) glycerol, 2% (w/v) SDS, 0.00125% bromophenol blue, and 5% (v/v) β-mercaptoethanol was added immediately before use). Samples were sonicated for 15 sec before aliquoting into 15 μl volumes. Samples were stored at −20° C. until use. 10-15 μl of thawed samples were resolved directly on a 10% polyacrylamide gel and transferred onto PVDF membrane at room temperature using wet transfer apparatus. After transfer, the membrane was blocked overnight in PBS containing 5% dry milk (Marvel). After blocking, the membrane was washed in PBST for 2×2 minutes before incubating for 1 hr with anti-PARP antibody (2 μg/ml in PBST containing 1% dry milk). Following incubation the membrane was washed for 20 minutes in PBST and incubated with goat anti mouse HRP conjugated secondary antibody (1:1000 dilution in PBST containing 1% dry milk). After washing in PBST for 30 minutes, ECL was used to visualise the proteins. […]"}}, "data": [{"smiles": "C[C@@H](CN1CC(=O)NC(=O)C1)N1CC(=O)NC(=O)C1", "note": "[ICRF 187, reference compound]", "values": [{"measurement": "effect of Topo II inhibitor pretreatment on PBOX-6 induced JNK activation", "setting": "JNK1 and JNK2", "result": "failed to prevent against PBOX-6 induced activation of JNK"}, {"measurement": "effect of pretreatment on PBOX-6 induced apoptosis", "setting": "K562 cells", "result": "reduced but did not completely inhibit"}, {"measurement": "effect of pretreatment on etoposide induced apoptosis", "setting": "Jurkat cells [1]", "result": "inhibited apoptosis induced by etoposide"}, {"measurement": "effect of pretreatment on etoposide induced DNA strand breaks", "setting": "Jurkat cells [2]", "result": "prevented etoposide induced DNA strand breaks"}]}, {"smiles": "CC(=O)OC1=C(c2ccccc2)Oc2cc3ccccc3cc2-n2cccc21", "note": "[PBOX-3, 4-Acetoxy-5-phenylnaphto[2,3-b]pyrrolo[1,2-d][1,4]oxazepine]", "values": [{"measurement": "degree of necrosis", "setting": "HL-60 cells; HL-60 cells, 10 μM, 16 hours", "result": "negligible"}, {"measurement": "cytotoxicity at 10 µM", "setting": "HL-60 cells; Homo sapiens, HL-60, 16 h, read-out: % Apoptosis", "result": "23.5 ± 2.1", "unit": "%"}, {"measurement": "Ki", "setting": "[3]", "result": "6 ± 1.9", "unit": "nM"}, {"measurement": "PARP cleavage", "setting": "[4]", "result": "induced PARP cleavage"}]}]}
